In ChEMBL document CHEMBL1201862, “PubChem BioAssay data set” (2004):
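Results reflect a 48-hour exposure of cells in 96-well plates to compound at five concentrations. At the GI50, growth is halved.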 Active and inactive are the calls of the source. Rule as the data show it: active = GI50 up to about 1.1 µM and inactive = higher.

Legend:
Experiment in all cases: growth of human tumour cells (NCI), 48 h
RPMI-8226 = system: RPMI-8226
DU-145 = system: DU-145
NCI-H226 = system: NCI-H226
LOX IMVI = system: LOX IMVI
NCI-H522 = system: NCI-H522
CCRF-CEM = system: CCRF-CEM
TK-10 = system: TK-10
MCF7 = system: MCF7
SF-268 = system: SF-268
SN12C = system: SN12C
MDA-MB-231 = system: MDA-MB-231
U-251 = system: U-251
RXF 393 = system: RXF 393
M14 = system: M14
SF-295 = system: SF-295
MDA-MB-435 = system: MDA-MB-435
786-0 = system: 786-0
SK-MEL-28 = system: SK-MEL-28
OVCAR-5 = system: OVCAR-5
CAKI-1 = system: CAKI-1

Row | SMILES | GI50 (RPMI-8226) | GI50 (DU-145) | GI50 (NCI-H226) | GI50 (LOX IMVI) | GI50 (NCI-H522) | GI50 (CCRF-CEM) | GI50 (TK-10) | GI50 (MCF7) | GI50 (SF-268) | GI50 (SN12C) | GI50 (MDA-MB-231) | GI50 (U-251) | GI50 (RXF 393) | GI50 (M14) | GI50 (SF-295) | GI50 (MDA-MB-435) | GI50 (786-0) | GI50 (SK-MEL-28) | GI50 (OVCAR-5) | GI50 (CAKI-1)
1 | O=C(O)c1ccccc1C1CCCc2c1[nH]c1ccccc21 (stereo not given) | 28.8 µM (inactive) | > 100 µM (inactive) | > 100 µM (inactive) | 44.2 µM (inactive) | 47.9 µM (inactive) | 20 µM (inactive) | > 100 µM (inactive) | 30.1 µM (inactive) | 66.1 µM (inactive) | > 100 µM (inactive) | 37.3 µM (inactive) | 81.8 µM (inactive) | 22.3 µM (inactive) | 53.5 µM (inactive) | 57 µM (inactive) | 31.3 µM (inactive) | > 100 µM (inactive) | 96.6 µM (inactive) | > 100 µM (inactive) | 72.6 µM (inactive)
2 | CC1=NNC(=O)[C@H]2[C@H]1CCC1[C@@H]2CC[C@]2(C)[C@@H](O)CC[C@@H]12 (stereo not given in full) | > 100 µM (inactive) | > 100 µM (inactive) | > 100 µM (inactive) | > 100 µM (inactive) | > 100 µM (inactive) | > 100 µM (inactive) | > 100 µM (inactive) | > 100 µM (inactive) | > 100 µM (inactive) | > 100 µM (inactive) | > 100 µM (inactive) | > 100 µM (inactive) | > 100 µM (inactive) | > 100 µM (inactive) | > 100 µM (inactive) | > 100 µM (inactive) | > 100 µM (inactive) | > 100 µM (inactive) | > 100 µM (inactive) | > 100 µM (inactive)
3 | O=C1Cc2c(-c3ccccc3)cc(-c3ccc4ccccc4c3)nc2-c2ccccc2N1 | 17.7 µM (inactive) | 34.5 µM (inactive) | 8.45 µM (inactive) | 16.7 µM (inactive) | 3.25 µM (inactive) | > 100 µM (inactive) | 12.3 µM (inactive) | 13.9 µM (inactive) | 4.29 µM (inactive) | 6.22 µM (inactive) | 5.79 µM (inactive) | 16.4 µM (inactive) | 2.9 µM (inactive) | 9.2 µM (inactive) | 17.8 µM (inactive) | 17.2 µM (inactive) | 3.18 µM (inactive) | > 100 µM (inactive) | 24.7 µM (inactive) | 3.25 µM (inactive)
4 | CN(C)/C=N/S(=O)(=O)c1nn2c(C=O)c(-c3ccc(-c4ccccc4)cc3)nc2s1 | 0.83 µM (active) | 2.4 µM (inactive) | 13.3 µM (inactive) | 0.753 µM (active) | 0.385 µM (active) | 0.145 µM (active) | 1.83 µM (inactive) | 0.838 µM (active) | 2.1 µM (inactive) | 1.97 µM (inactive) | 2.99 µM (inactive) | 2.01 µM (inactive) | 1.71 µM (inactive) | 0.904 µM (active) | 14.4 µM (inactive) | 1.69 µM (inactive) | 0.927 µM (active) | 1.98 µM (inactive) | 6.89 µM (inactive) | 1.31 µM (inactive)
5 | O=[N+]([O-])c1c(F)c(F)c2c(c1F)Nc1ccccc1S2 | 4.7 µM (inactive) | 4.06 µM (inactive) | 16.9 µM (inactive) | 1.86 µM (inactive) | 4.68 µM (inactive) | 2.69 µM (inactive) | 23.8 µM (inactive) | 5 µM (inactive) | 2.49 µM (inactive) | 3.38 µM (inactive) | 2.27 µM (inactive) | 2.05 µM (inactive) | 2.25 µM (inactive) | 3.64 µM (inactive) | 17.3 µM (inactive) | 4.81 µM (inactive) | 8.24 µM (inactive) | 2.51 µM (inactive) | 13 µM (inactive) | 3.99 µM (inactive)
6 | C=C(CCC(=O)N(CCc1c[nH]c2ccccc12)C(=O)c1ccccc1CSCC)C(=O)OC | 7.59 µM (inactive) | > 95.5 µM (inactive) | 53.7 µM (inactive) | 29.2 µM (inactive) | 23.6 µM (inactive) | 5.4 µM (inactive) | 66.5 µM (inactive) | 19.9 µM (inactive) | > 77.3 µM (inactive) | 30.3 µM (inactive) | 30.1 µM (inactive) | 10.3 µM (inactive) | > 47.5 µM (inactive) | 44.6 µM (inactive) | 24.7 µM (inactive) | 22 µM (inactive) | 50 µM (inactive) | > 100 µM (inactive) | > 100 µM (inactive) | 84.1 µM (inactive)
7 | CC(C)C(=O)/C=C/c1ccc(Cl)cc1Cl | > 100 µM (inactive) | 14.2 µM (inactive) | 13.2 µM (inactive) | 3.55 µM (inactive) | 10.8 µM (inactive) | 5.09 µM (inactive) | 14.2 µM (inactive) | 3.62 µM (inactive) | 6.93 µM (inactive) | 10.7 µM (inactive) | 23.9 µM (inactive) | 12.6 µM (inactive) | 8.79 µM (inactive) | 8.28 µM (inactive) | 16.9 µM (inactive) | 2.99 µM (inactive) | 14.2 µM (inactive) | 16.5 µM (inactive) | 16.9 µM (inactive) | 12.2 µM (inactive)
8 | O=c1[nH]c2nccn2c(Cl)c1Br | 54.3 µM (inactive) | 83.8 µM (inactive) | 35.2 µM (inactive) | 18 µM (inactive) | 14.6 µM (inactive) | 20.5 µM (inactive) | > 100 µM (inactive) | 42.6 µM (inactive) | 23.2 µM (inactive) | 26.2 µM (inactive) | 17.5 µM (inactive) | 17.3 µM (inactive) | 1.94 µM (inactive) | 16.8 µM (inactive) | > 100 µM (inactive) | 19.8 µM (inactive) | 86.9 µM (inactive) | 19.4 µM (inactive) | 23.4 µM (inactive) | 22.4 µM (inactive)
9 | COC(=O)C1=C(OC)C(=P2(c3ccccc3)CC(c3ccccc3)=C2c2ccccc2)C(C(=O)OC)=C1C(=O)OC (stereo not given) | 9.42 µM (inactive) | > 61.2 µM (inactive) | 68.9 µM (inactive) | 25.1 µM (inactive) | 2.65 µM (inactive) | 0.745 µM (active) | > 20.2 µM (inactive) | 7.55 µM (inactive) | > 61.1 µM (inactive) | 31.8 µM (inactive) | > 72.8 µM (inactive) | 19.9 µM (inactive) | 18.1 µM (inactive) | 43.5 µM (inactive) | > 76.6 µM (inactive) | 40.7 µM (inactive) | 27.4 µM (inactive) | > 68.5 µM (inactive) | > 100 µM (inactive) | 50.4 µM (inactive)
10 | CNC(=O)OCc1c(COC(=O)NC)c(C)n(-c2ccc(Br)cc2)c1C | 11 µM (inactive) | 14.3 µM (inactive) | 1.24 µM (inactive) | 6.24 µM (inactive) | 10.2 µM (inactive) | 4.85 µM (inactive) | 11 µM (inactive) | 11.3 µM (inactive) | 10.7 µM (inactive) | 9.16 µM (inactive) | 13.9 µM (inactive) | 10.7 µM (inactive) | 5.37 µM (inactive) | 13.2 µM (inactive) | 13.1 µM (inactive) | 16.8 µM (inactive) | 9.82 µM (inactive) | 16.4 µM (inactive) | 12.9 µM (inactive) | 4.02 µM (inactive)
11 | CCNC(=O)/C(=C/c1ccc(OC)cc1)c1cc(OC)c(OC)c(OC)c1 | 14 µM (inactive) | 13.3 µM (inactive) | 40.7 µM (inactive) | 8.39 µM (inactive) | 4.92 µM (inactive) | 6.79 µM (inactive) | 20.5 µM (inactive) | 4.84 µM (inactive) | 13.8 µM (inactive) | 20.7 µM (inactive) | 6.41 µM (inactive) | 7.21 µM (inactive) | 1.95 µM (inactive) | 9.29 µM (inactive) | 2.98 µM (inactive) | 2.09 µM (inactive) | 8.85 µM (inactive) | 5.79 µM (inactive) | 63.8 µM (inactive) | 6.03 µM (inactive)
12 | Cc1cc(C)c2c(=N)c3ccccc3n(CCCCCCCCn3c4ccccc4c(=N)c4c(C)cc(C)nc43)c2n1 | 0.239 µM (active) | 1.64 µM (inactive) | 1.55 µM (inactive) | 0.515 µM (active) | 1.38 µM (inactive) | 0.204 µM (active) | 1.93 µM (inactive) | 0.586 µM (active) | 1.74 µM (inactive) | 1.59 µM (inactive) | 1.84 µM (inactive) | 0.553 µM (active) | 1.32 µM (inactive) | 1.66 µM (inactive) | 1.5 µM (inactive) | 1.54 µM (inactive) | 0.931 µM (active) | 1.6 µM (inactive) | 1.89 µM (inactive) | 1.7 µM (inactive)
13 | N#Cc1c(N)[nH]c2ccc(Sc3ccccc3)cc12 | 0.361 µM (active) | 0.721 µM (active) | 0.457 µM (active) | 0.213 µM (active) | 0.112 µM (active) | 0.151 µM (active) | 1.8 µM (inactive) | < 0.0711 µM (active) | 0.248 µM (active) | 0.574 µM (active) | 0.881 µM (active) | 0.297 µM (active) | 0.208 µM (active) | 0.0828 µM (active) | 0.23 µM (active) | < 0.107 µM (active) | 0.152 µM (active) | 0.141 µM (active) | 0.964 µM (active) | 0.216 µM (active)
14 | COC(=O)c1c(O)ccc2c1c1c(n2Cc2ccccc2)C(=O)c2ccccc2C1=O | 8.55 µM (inactive) | 18.3 µM (inactive) | 18.3 µM (inactive) | 15.6 µM (inactive) | 11 µM (inactive) | 15 µM (inactive) | 17.1 µM (inactive) | 12.1 µM (inactive) | 14.8 µM (inactive) | 13.9 µM (inactive) | 16.2 µM (inactive) | 13.9 µM (inactive) | 14.1 µM (inactive) | 20.4 µM (inactive) | 19.4 µM (inactive) | 13 µM (inactive) | 18.2 µM (inactive) | 17.5 µM (inactive) | 20.9 µM (inactive) | 18.7 µM (inactive)
